Results reported in patent US10570108B2, “Substituted benzofuran compounds for the treatment of hepatitis C” (BRISTOL-MYERS SQUIBB COMPANY, priority 2015, dated 2020).

System: HCV replicon
Experiment: HCV replicon luciferase assay
Assay type: cell-based
Conditions: Hepatitis C virus, Huh-7, 72 h
Method: Cell lines. The cell lines used to evaluate compounds consist of a human hepatocyte derived cell line (Huh-7) that constitutively expresses a genotype 1b (Con-1) HCV replicon or a genotype 1b (Con-1) HCV replicon with an asparagine replacing the cysteine at amino acid 316, or a genotype 2a (JFH-1) replicon, containing a Renilla luciferase reporter gene. These cells were maintained in Dulbecco's modified Eagle medium (DMEM) containing 10% FBS, 100 U/mL penicillin/streptomycin and 1.0 mg/mL G418.
HCV replicon luciferase assay. To evaluate compound efficacy, titrated compounds were transferred to sterile 384-well tissue culture treated plates, and the plates were seeded with HCV replicon cells (50 μL at a density of 2.4×10^3 cells/well) in DMEM containing 4% FBS (final DMSO concentration at 0.5%). After 3 days incubation at 37° C., cells were analyzed for Renilla Luciferase activity using the EnduRen substrate (Promega cat #E6485) according to the manufacturer's directions. Briefly, the EnduRen substrate was diluted in DMEM and then added to the plates to a final concentration of 7.5 μM. The plates were incubated for at least 1 h at 37° C. then read on a Viewlux Imager (PerkinElmer) using a luminescence program. The 50% effective concentration (EC50) was calculated using the four-parameter logistic formula noted above.

Compound	EC50 [nM]
CCN(CC)c1cc2oc(-c3ccc(F)cc3)c(C(=O)NC)c2cc1-c1cccc(C(=O)NCC2(C#N)CC2)c1 [Compound 1019]	< 100
CCN(CC)c1cc2oc(-c3ccc(F)cc3)c(C(=O)NC)c2cc1-c1cccc(C(=O)N[C@H](CC(=O)O)CC(C)C)c1 [Compound 1043]	< 100
CCN(CC)c1cc2oc(-c3ccc(F)cc3)c(C(=O)NC)c2cc1-c1cccc(C(=O)NCC2(COC)CC2)c1 [Compound 1020]	< 100
CCN(CC)c1cc2oc(-c3ccc(F)cc3)c(C(=O)NC)c2cc1-c1cccc(C(=O)NC2CC(O)C2)c1 (stereo not drawn) [Compound 1005]	< 100
CCN(CC)c1cc2oc(-c3ccc(F)cc3)c(C(=O)NC)c2cc1-c1cccc(C(=O)NC2(CC(=O)O)CCCCC2)c1 [Compound 2002]	< 100
CCN(CC)c1cc2oc(-c3ccc(F)cc3)c(C(=O)NC)c2cc1-c1cccc(C(=O)NC23CC4(C)CC(C)(CC(O)(C4)C2)C3)c1 [Compound 1035]	< 100
CCN(CC)c1cc2oc(-c3ccc(F)cc3)c(C(=O)NC)c2cc1-c1cccc(C(=O)NC2CCOC2)c1 (stereo not drawn) [Compound 1029]	< 100
CCN(c1cc2oc(-c3ccc(F)cc3)c(C(=O)NC)c2cc1-c1cccc(C(=O)N[C@H]2CCNC2=O)c1)S(C)(=O)=O [Compound 5004]	100 to 1000
CCN(CC)c1cc2oc(-c3ccc(F)cc3)c(C(=O)NC)c2cc1-c1cccc(C(=O)NCC(=N)N)c1 [Compound 1017]	100 to 1000
CCN(CC)c1cc2oc(-c3ccc(F)cc3)c(C(=O)NC)c2cc1-c1cccc(C(=O)NC[C@H]2CCCC[C@H]2O)c1 [Compound 1003]	< 100
CCN(CC)c1cc2oc(-c3ccc(F)cc3)c(C(=O)NC)c2cc1-c1cccc(C(=O)N[C@H]2CC=CC[C@H]2CO)c1 [Compound 1009]	< 100
CCN(CC)c1cc2oc(-c3ccc(F)cc3)c(C(=O)NC)c2cc1-c1cccc(C(=O)NC2CCOCC2)c1 [Compound 1028]	< 100
CCN(CC)c1cc2oc(-c3ccc(F)cc3)c(C(=O)NC)c2cc1-c1cccc(C(=O)NC(C)[C@@]23C[C@@H]4C[C@@H](C[C@@](O)(C4)C2)C3)c1 (stereo partly drawn) [Compound 1033]	< 100

System: HCV
Experiment: not given
Conditions: extended dosing of the combination regimens; cited from earlier work

Compound	hepatic toxicity
CNC(=O)c1c(-c2ccc(F)cc2)oc2cc(N(CCO)S(C)(=O)=O)c(C3CC3)cc12 [HCV-796]	hepatic toxicity observed

Same assay, conditions: single agent or combined with interferon and ribavirin; cited from earlier work

Compound	HCV RNA levels in patients
CNC(=O)c1c(-c2ccc(F)cc2)oc2cc(N(CCO)S(C)(=O)=O)c(C3CC3)cc12 [HCV-796]	reduce HCV RNA levels
